Measured values: ChEMBL document CHEMBL3098123, “New inhibitors of cytomegalovirus DNA polymerase” (ACS Med Chem Lett, 2013)

Experiment: Inhibition of GST-tagged recombinant human cytomegalovirus DNA polymerase catalytic subunit UL54 expressed in baculovirus infected insect Sf21 cells assessed as incorporation of biotin-tagged dUTP after 30 mins by LANCE TR-FRET assay
Design: species or system Human betaherpesvirus 5

Structure (SMILES) | IC50
COc1cc(N)nc2c1cc(C(=O)NCc1ccc(Cl)cc1)c(=O)n2CC(=O)N(C)CC1(CO)COC1 | 0.022 µM
CN(CC(=O)O)c1ccnc2c1cc(C(=O)NCc1ccc(Cl)cc1)c(=O)n2CC(=O)N1CC(C)(C)C1 | 0.05 µM
CC1(C)CN(C(=O)Cn2c(=O)c(C(=O)NCc3ccc(Cl)cc3)cc3cc(-c4nn[nH]n4)cnc32)C1 | 0.03 µM
